Converted amounts (≈) assume the structure as drawn. Read-outs that look alike come from different tables or passages of the source. Where a SMILES comes first, the peptide text is derived from it.
What was measured:
Test in all cases: microbe, parasite or virus in culture
Type in all cases: cell-based
[1] = tested on: Escherichia coli clinical isolate - animal
Outline: (§1)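 Broth microdilution following CLSI M07-A/M26A, using peptides at 64–0.125 μg/mL final in MHB, with or without 10% lysed horse blood and with or without Ca/Mg cations (MH II B). Inoculum 5 x 10^5 CFU/mL, incubated 20–24 h at 35 °C; MIC is lowest concentration preventing visible growth, MBC by colony counts versus starting inoculum.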

[2] = tested on: Staphylococcus aureus clinical isolate - animal
Outline: as §1

[3] = tested on: Escherichia coli ATCC 25922
Outline: as §1

[4] = tested on: Staphylococcus aureus ATCC 29213
Outline: as §1

[5] = tested on: Streptococcus pneumoniae ATCC 49619; conditions: read-out: MIC S. pneumoniae ATCC
Description: (§2) Antimicrobial testing of 78 cathelicidin MPs was performed in two phases as outlined in Figure 1 . In phase I, 40 peptides (27 extant and 13 ancestral) were selected for testing based on rank (outlined above) and similarity to published marsupial cathelicidins with known antimicrobial activity ([33], [41]–[43]). These peptides were tested against nine bacteria (Staphylococcus aureus ATCC 29213 and clinical isolate, Escherichia coli ATCC 25922 and clinical isolate, Pseudomonas aeruginosa ATCC 27853 and clinical isolate, Streptococcus agalactiae ATCC 12386 and clinical isolate, Streptococcus pneumoniae ATCC 49619) and three fungi (Candida krusei ATCC 6258, Candida parapsilosis ATCC 22019, and Candida albicans clinical isolate). Details regarding these strains are available in Supplementary Table 4 . The antimicrobial activity of cathelicidins was determined as the minimum inhibitory concentration (MIC), which was the lowest concentration of cathelicidin that prevented visible bacterial or fungal growth, relative to the negative control. […] Minimum bactericidal concentration (MBC) and/or minimum fungicidal concentration (MFC) was conducted to determine microbicidal versus static action. Activity against S. aureus ATCC, E. coli ATCC, and Pseudomonas aeruginosa ATCC 27853 was examined in the presence of divalent cations to determine the impact of inhibitors.
(§3) Antimicrobial activity was determined using a broth microdilution susceptibility assay in 96 well polypropylene plates according to Clinical Laboratory Standards Institute guidelines M07-A and M26A as described previously ([33], [42], [43]). The bacterial and fungal isolates from humans and animals used in this study are outlined in Supplementary Table 4 . Only yeasts were included in the panel of fungi as they have been used in the susceptibility testing of eutherian ([3], [81]–[83]) and other marsupial cathelicidins previously ([33], [42], [43]). Cathelicidin mature peptides were solubilized in DMSO and serially diluted in duplicate from 128-0.25μg/mL in a final volume of 100µL. For bacteria, cathelicidins were diluted in Mueller Hinton Broth (MHB) with or without 10% lysed horse blood, and with (MH II B) or without (MHB) calcium and magnesium cations. For fungi, cathelicidins were diluted in Roswell Park Memorial Institute medium (RPMI)-1640 MOPS. Ampicillin or tetracycline were included as a positive control for Gram-positive and -negative bacteria respectively, while amphotericin B was used for fungi. A media-only negative control and growth control (no cathelicidin) were also included on each plate. Bacteria were sub-cultured on Muller Hinton agar (MHA) or sheep blood agar (BA), and fungi on Sabouraud dextrose agar (SAB), 20–24 hours prior to the test. Colonies were suspended in saline, the concentration adjusted to a 0.5 McFarland standard, and then diluted in media to a concentration of 1.0 x 10^6 cells/mL. Then, 100μL was added to each well of the cathelicidin dilution plate, giving a final inoculum density of 5 x 10^5 CFU/mL and cathelicidin concentration of 64-0.125μg/mL. Colony counts were performed on MHA/BA/SAB to confirm inoculum density. All plates were incubated at 35°C for 20–24 hours, depending on the strain.
(§4) Colonies were counted and compared to the colony count of the starting inoculum.

[6] = tested on: Streptococcus agalactiae ATCC 12386; conditions: read-out: MIC S. agalactiae ATCC
Description: as §2, §3, §4

[7] = tested on: Streptococcus agalactiae Clinical isolate - animal; conditions: read-out: MIC S. agalactiae
Description: as §2, §3, §4

[8] = tested on: Pseudomonas aeruginosa ATCC 27853; conditions: ATCC 27853; read-out: MIC P. aeruginosa ATCC
Outline: as §1

[9] = tested on: Pseudomonas aeruginosa clinical isolate - animal; conditions: clinical isolate - animal; read-out: MIC P. aeruginosa
Outline: as §1

[10] = clinical isolate - animal, read-out: MIC S. aureus
[11] = ATCC 29213, read-out: MIC S. aureus ATCC

CC1(C)S[C@@H]2[C@H](NC(=O)[C@H](N)c3ccccc3)C(=O)N2[C@H]1C(=O)O [Ampicillin, reference compound]
MIC ([1]; Escherichia coli, clinical isolate, MHB without cations, 5 x 10^5 CFU/mL, 35°C 20–24 hours, duplicate): > 64 µg/mL | MIC ([1]; Escherichia coli, clinical isolate, µM equivalent of Table 3): > 183 µM | MIC ([2]; Staphylococcus aureus, clinical isolate, MHB without cations, 5 x 10^5 CFU/mL, 35°C 20–24 hours, duplicate, read-out: MIC S. aureus): 0.25 µg/mL | MIC ([2]; Staphylococcus aureus, clinical isolate, superscript value, cation-adjusted Mueller Hinton broth, read-out: MIC in the presence of cations S. aureus): 0.25 µg/mL | MIC ([2]; Staphylococcus aureus, clinical isolate, superscript value, cation-adjusted Mueller Hinton broth, µM equivalent, read-out: MIC in the presence of cations S. aureus): 0.7 µM | MIC ([2]; Staphylococcus aureus, clinical isolate, µM equivalent of Table 3, read-out: MIC S. aureus): 0.7 µM | MIC ([3]; Escherichia coli, ATCC25922, MHB without cations, 5 x 10^5 CFU/mL, 35°C 20–24 hours, duplicate, read-out: MIC E. coli ATCC): 4 µg/mL | MIC ([3]; Escherichia coli, ATCC25922, superscript value, cation-adjusted Mueller Hinton broth, read-out: MIC in the presence of cations E. coli ATCC): 8 µg/mL | MIC ([3]; Escherichia coli, ATCC25922, superscript value, cation-adjusted Mueller Hinton broth, µM equivalent, read-out: MIC in the presence of cations E. coli ATCC): 22.8 µM | MIC ([3]; Escherichia coli, ATCC25922, µM equivalent of Table 3, read-out: MIC E. coli ATCC): 11.4 µM | MIC ([4]; Staphylococcus aureus, ATCC29213, MHB without cations, 5 x 10^5 CFU/mL, 35°C 20–24 hours, duplicate, 64-0.125μg/mL, read-out: MIC S. aureus ATCC): 1 µg/mL | MIC ([4]; Staphylococcus aureus, ATCC29213, superscript value, cation-adjusted Mueller Hinton broth (calcium and magnesium), read-out: MIC in the presence of cations S. aureus ATCC): 2 µg/mL | MIC ([4]; Staphylococcus aureus, ATCC29213, superscript value, cation-adjusted Mueller Hinton broth, µM equivalent of Table 3, read-out: MIC in the presence of cations S. aureus ATCC): 5.7 µM | MIC ([4]; Staphylococcus aureus, ATCC29213, µM equivalent of Table 3, read-out: MIC S. aureus ATCC): 2.8 µM | MIC ([5]; Streptococcus pneumoniae, ATCC49619, phase I peptides only, 5 x 10^5 CFU/mL, 35°C 20–24 hours, duplicate): > 64 µg/mL | MIC ([5]; Streptococcus pneumoniae, ATCC49619, µM equivalent of Table 3): > 183 µM | MIC ([6]; Streptococcus agalactiae, ATCC12386, phase I peptides only, 5 x 10^5 CFU/mL, 35°C 20–24 hours, duplicate): 0.25 µg/mL | MIC ([6]; Streptococcus agalactiae, ATCC12386, µM equivalent of Table 3): 0.7 µM | MIC ([7]; Streptococcus agalactiae, clinical isolate, phase I peptides only, 5 x 10^5 CFU/mL, 35°C 20–24 hours, duplicate): 0.25 µg/mL | MIC ([7]; Streptococcus agalactiae, clinical isolate, µM equivalent of Table 3): 0.7 µM

CC[C@H](C)[C@H](NC(=O)[C@H](CCCCN)NC(=O)[C@H](CC(C)C)NC(=O)CNC(=O)[C@H](CC(N)=O)NC(=O)[C@@H](NC(=O)[C@H](CCCNC(=N)N)NC(=O)[C@H](CCCNC(=N)N)NC(=O)[C@H](CCCNC(=N)N)NC(=O)[C@@H](NC(=O)[C@H](CO)NC(=O)[C@H](CC(N)=O)NC(=O)[C@H](CCCNC(=N)N)NC(=O)[C@H](CC(C)C)NC(=O)[C@H](CCCCN)NC(=O)[C@H](CCCCN)NC(=O)[C@H](C)NC(=O)[C@H](CCCCN)NC(=O)[C@H](CCC(=O)O)NC(=O)[C@H](CCCCN)NC(=O)[C@@H](NC(=O)[C@@H](NC(=O)[C@H](CC(=O)O)NC(=O)[C@H](Cc1c[nH]c2ccccc12)NC(=O)[C@H](CC(C)C)NC(=O)CNC(=O)[C@H](CCCNC(=N)N)NC(=O)[C@@H](N)CCCCN)[C@@H](C)O)C(C)C)[C@@H](C)CC)C(C)C)C(=O)NCC(=O)N[C@@H](C)C(=O)N[C@@H](C)C(=O)N[C@@H](CC(=O)O)C(=O)N[C@@H](CCC(N)=O)C(=O)N[C@H](C(=O)N1CCC[C@H]1C(=O)NCC(=O)N[C@@H](Cc1c[nH]cn1)C(=O)N[C@@H](CO)C(=O)N[C@@H](CC(C)C)C(=O)O)C(C)C [LahiCath4] (H-KRGLWDTVKEKAKKLRNSIRRRVNGLKIGAADQVPGHSL-OH)
MBC E. coli ([1]; clinical isolate - animal): 14.5 µM (≈ 63.8 µg/mL) | MIC ([1]; clinical isolate - animal): 3.6 µM | MIC in the presence of cations E. coli ([1]; clinical isolate - animal): 14.5 µM | MIC [2, 10]: >14.5 µM | MBC E. coli ATCC ([3]; ATCC 25922): 14.5 µM (≈ 63.8 µg/mL) | MIC ([3]; ATCC 25922, read-out: MIC E. coli ATCC): 7.2 µM | MIC ([3]; ATCC 25922, read-out: MIC in the presence of cations E. coli ATCC): 14.5 µM | MIC [8]: >14.5 µM | MIC [9]: >14.5 µM | MIC [4, 11]: >14.5 µM | MIC ([5]; ATCC 49619): >14.5 µM | MIC ([6]; ATCC 12386): >14.5 µM | MIC ([7]; clinical isolate - animal): >14.5 µM

CC[C@H](C)[C@H](NC(=O)[C@H](CC(=O)O)NC(=O)[C@H](CCCNC(=N)N)NC(=O)[C@H](CC(C)C)NC(=O)[C@H](CCCCN)NC(=O)[C@H](CCCNC(=N)N)NC(=O)[C@H](Cc1ccc(O)cc1)NC(=O)[C@H](CCCCN)NC(=O)[C@H](CCC(=O)O)NC(=O)[C@H](CC(C)C)NC(=O)[C@H](CC(C)C)NC(=O)[C@@H](NC(=O)[C@H](CCCNC(=N)N)NC(=O)[C@H](Cc1ccc(O)cc1)NC(=O)[C@H](CCCCN)NC(=O)[C@H](CCC(N)=O)NC(=O)[C@H](Cc1ccc(O)cc1)NC(=O)[C@@H](NC(=O)[C@H](CC(C)C)NC(=O)[C@@H](N)CC(N)=O)[C@@H](C)CC)[C@@H](C)CC)C(=O)N[C@@H](Cc1ccccc1)C(=O)N[C@@H](CO)C(=O)NCC(=O)O [MAP6] (H-NLIYQKYRILLEKYRKLRDIFSG-OH)
MBC E. coli ([1]; clinical isolate - animal): 10.9 (10.9)^10.9 µM | MIC E. coli ([1]; clinical isolate - animal): 10.9 (10.9)^10.9 µM | MIC in the presence of cations E. coli ([1]; clinical isolate - animal): 10.9 (10.9)^10.9 µM | MIC [2, 10]: >21.8 µM | MBC E. coli ATCC ([3]; ATCC 25922): 10.9 (10.9)^10.9 µM | MIC E. coli ATCC ([3]; ATCC 25922): 10.9 (10.9)^10.9 µM | MIC in the presence of cations E. coli ATCC ([3]; ATCC 25922): 10.9 (10.9)^10.9 µM | MIC [8]: >21.8 µM | MIC [9]: >21.8 µM | MIC [4, 11]: >21.8 µM | MIC ([5]; ATCC 49619): >21.8 µM | MIC ([6]; ATCC 12386): >21.8 µM | MIC ([7]; clinical isolate - animal): >21.8 µM

Source: publication PMC12006171, “Marsupial cathelicidins: characterization, antimicrobial activity and evolution in this unique mammalian lineage” (Frontiers in Immunology, 2025)
